This is an account of results in ChEMBL document CHEMBL1201862, “PubChem BioAssay data set” (2004).

The source made the active and inactive calls. Bounds are passed on as bounds.

In assay [1] the target is T1, Polyadenylate-binding protein 1 (Homo sapiens, UniProt P11940). Nature of the assay: MLLE domain peptide-binding blockers, IC50 – biochemical, fluorescence polarization, FITC-PAM2 peptide, dose response (AID 602259). Format: functional. The conditions noted are these: read-out: IC50_Mean.
The target in assay [2] is T1, Polyadenylate-binding protein 1. Nature of the assay: MLLE binding blockers, Cy5 peptide tracer – biochemical, fluorescence polarization, Cy5-PAM2 peptide, secondary, miRNA deadenylation inhibitor project, dose response (AID 602260). The note with it: read-out: IC50_Mean. It counts as functional. For orientation: Polarisation of emitted light reports the rotation of a fluorescent probe.

Assay [3] addresses T2, Heat shock factor protein 1 (Mus musculus, UniProt P38532).
T2 sequence (P38532 whole entry): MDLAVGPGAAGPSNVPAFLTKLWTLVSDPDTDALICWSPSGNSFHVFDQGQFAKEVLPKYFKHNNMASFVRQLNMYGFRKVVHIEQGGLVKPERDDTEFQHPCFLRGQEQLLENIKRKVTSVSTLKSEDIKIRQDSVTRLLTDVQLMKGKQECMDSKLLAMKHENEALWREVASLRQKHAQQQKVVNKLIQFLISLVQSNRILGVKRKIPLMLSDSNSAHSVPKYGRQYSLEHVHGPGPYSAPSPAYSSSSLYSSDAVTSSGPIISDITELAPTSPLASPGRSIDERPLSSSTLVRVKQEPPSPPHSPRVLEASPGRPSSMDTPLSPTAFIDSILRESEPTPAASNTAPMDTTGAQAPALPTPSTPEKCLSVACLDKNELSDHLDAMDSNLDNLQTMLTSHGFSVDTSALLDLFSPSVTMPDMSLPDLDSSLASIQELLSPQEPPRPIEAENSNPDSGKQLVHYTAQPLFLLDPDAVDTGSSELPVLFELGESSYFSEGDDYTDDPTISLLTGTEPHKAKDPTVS
Nature of the assay: enhancement of HSF1-driven luciferase signal – cell-based, NIH3T3, luminescence, dose retest, confirmation (AID 435004).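 Further: stress induced by proteasome inhibitor MG132 added 30 min after compound; luciferase reporter driven by HSF1 response element in NIH3T3 cells; actives raise luminescence as potentiators of the MG132 stress response.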 It counts as functional.

The target of a further assay is T3, Coagulation factor XII (Homo sapiens, UniProt P00748).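 Further: activated factor XIIa alpha cleaving a fluorogenic AMC peptide substrate; inhibitor potency from loss of enzyme activity.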
T3 sequence (P00748 whole entry): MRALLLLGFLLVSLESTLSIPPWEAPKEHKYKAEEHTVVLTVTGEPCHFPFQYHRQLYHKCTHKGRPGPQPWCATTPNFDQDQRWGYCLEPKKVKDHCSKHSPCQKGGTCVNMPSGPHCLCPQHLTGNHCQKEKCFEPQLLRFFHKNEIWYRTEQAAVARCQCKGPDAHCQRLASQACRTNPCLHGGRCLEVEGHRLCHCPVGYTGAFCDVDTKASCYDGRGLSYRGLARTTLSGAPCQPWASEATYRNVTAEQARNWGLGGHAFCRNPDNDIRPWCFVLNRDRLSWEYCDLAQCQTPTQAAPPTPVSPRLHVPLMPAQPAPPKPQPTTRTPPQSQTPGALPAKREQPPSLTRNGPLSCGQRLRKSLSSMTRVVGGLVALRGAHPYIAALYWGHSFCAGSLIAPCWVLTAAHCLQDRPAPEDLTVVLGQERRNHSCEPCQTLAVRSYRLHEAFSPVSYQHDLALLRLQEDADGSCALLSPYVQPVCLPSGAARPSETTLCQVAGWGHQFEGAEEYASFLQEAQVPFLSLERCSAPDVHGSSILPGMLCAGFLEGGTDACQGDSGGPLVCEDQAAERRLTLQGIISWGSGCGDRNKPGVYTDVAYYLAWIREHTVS
It counts as functional.

The target in assay [4] is T4, Rac GTPase-activating protein 1 (Homo sapiens, UniProt Q9H0H5).
T4 sequence (Q9H0H5 whole entry): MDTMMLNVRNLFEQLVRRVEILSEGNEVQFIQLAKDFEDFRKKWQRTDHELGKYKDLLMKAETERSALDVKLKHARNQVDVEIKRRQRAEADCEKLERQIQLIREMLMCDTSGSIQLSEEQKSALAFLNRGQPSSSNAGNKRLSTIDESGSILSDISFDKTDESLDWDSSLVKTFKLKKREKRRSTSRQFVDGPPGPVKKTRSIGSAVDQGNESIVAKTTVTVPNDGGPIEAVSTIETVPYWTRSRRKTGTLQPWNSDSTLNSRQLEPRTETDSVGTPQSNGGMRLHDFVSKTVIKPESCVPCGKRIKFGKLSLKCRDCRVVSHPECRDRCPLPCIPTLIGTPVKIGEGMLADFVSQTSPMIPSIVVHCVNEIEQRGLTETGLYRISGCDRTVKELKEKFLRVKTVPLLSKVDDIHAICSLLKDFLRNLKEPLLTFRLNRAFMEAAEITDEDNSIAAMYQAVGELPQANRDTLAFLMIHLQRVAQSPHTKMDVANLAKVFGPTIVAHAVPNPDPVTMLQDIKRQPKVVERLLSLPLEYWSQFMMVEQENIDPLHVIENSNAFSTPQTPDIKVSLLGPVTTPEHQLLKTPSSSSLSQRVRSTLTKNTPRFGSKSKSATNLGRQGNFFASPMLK
Nature of the assay: blockers of MgcRacGAP-driven Rac1 GTP hydrolysis – biochemical, ADP Hunter fluorescence, primary and confirmatory, confirmation (AID 624330). Format: functional.

The next assay deals with Large T antigen (Simian virus 40, UniProt P03070). It counts as functional, Betapolyomavirus macacae.
Assay [5] in a line: cells. It counts as functional, cell-based.
Assay [6] in a line: cells. It counts as functional, cell-based. This is another data set of the same source.
Assay [7] addresses T5, Ubiquitin-conjugating enzyme E2 N (Homo sapiens, UniProt P61088).
T5 sequence (P61088 whole entry): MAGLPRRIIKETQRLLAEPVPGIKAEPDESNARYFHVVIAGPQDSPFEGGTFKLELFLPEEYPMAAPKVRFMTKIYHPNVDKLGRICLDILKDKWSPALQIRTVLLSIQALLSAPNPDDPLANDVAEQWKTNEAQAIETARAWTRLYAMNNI
It counts as functional.

The nature of assay [8]: non-specific 3'UTR reporter inhibition in Clone20-Shn3RL – cell-based, Renilla luciferase, cherry-picked, counter-screen for Shn3 inhibitor project, dose response (AID 624133). Format: functional. (In general: The purpose of a counterscreen is to sort out artefacts and off-target activity.)
Assay [9] can be described thus: reduction of Shn3 3'UTR-driven luciferase in osteoblasts – cell-based, Clone20 osteoblasts, firefly luciferase, cherry-picked, dose response (AID 624132).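 Further: firefly luciferase luminescence from reporter carrying the Shn3 3'UTR in osteoblasts.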 Format: functional.
The nature of assay [10]: Luminescence Cell-Based Dose Confirmation HTS to Identify Inhibitors of Platelet Dense Granule Release. [Related pubchem assays: 1663 (Primary HTS), 1678 (Summary of Project)]. It counts as functional.
The test system of a further assay is HEK293. Nature of the assay: EBV LMP1 TES2 canonical NF-kB signalling blockers – cell-based, HEK293, luciferase, cherry-pick, dose response (AID 588343). It counts as functional. The conditions noted are these: Homo sapiens.
Assay [11] deals with Luciferin 4-monooxygenase (Photinus pyralis, UniProt P08659). Nature of the assay: inhibition of purified Photinus pyralis luciferase – biochemical, luminescence, dose response (AID 1891).
Assay [12] is described as follows: off-target signal loss in HeLa-CEM21 co-culture – HeLa F-luc CTL cells, cherry-picked, counter-screen for HIV-1 Env fusion inhibitor project, dose response (AID 652040).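 Further: potency for signal decrease marking cytotoxic or nonspecific inhibition.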 It counts as functional, cell-based.
Assay [13] in a line: HIV-1 AD8 envelope cell-cell fusion blockers – cherry-pick, dose response (AID 652062).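 Further: luciferase signal from cell-cell fusion driven by HIV-1 clade B AD8 Env; potency is for inhibitors of fusion seen as a drop in luminescence.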 It counts as functional, cell-based.

T1 sequence (P11940 whole entry, the tested form may be a part): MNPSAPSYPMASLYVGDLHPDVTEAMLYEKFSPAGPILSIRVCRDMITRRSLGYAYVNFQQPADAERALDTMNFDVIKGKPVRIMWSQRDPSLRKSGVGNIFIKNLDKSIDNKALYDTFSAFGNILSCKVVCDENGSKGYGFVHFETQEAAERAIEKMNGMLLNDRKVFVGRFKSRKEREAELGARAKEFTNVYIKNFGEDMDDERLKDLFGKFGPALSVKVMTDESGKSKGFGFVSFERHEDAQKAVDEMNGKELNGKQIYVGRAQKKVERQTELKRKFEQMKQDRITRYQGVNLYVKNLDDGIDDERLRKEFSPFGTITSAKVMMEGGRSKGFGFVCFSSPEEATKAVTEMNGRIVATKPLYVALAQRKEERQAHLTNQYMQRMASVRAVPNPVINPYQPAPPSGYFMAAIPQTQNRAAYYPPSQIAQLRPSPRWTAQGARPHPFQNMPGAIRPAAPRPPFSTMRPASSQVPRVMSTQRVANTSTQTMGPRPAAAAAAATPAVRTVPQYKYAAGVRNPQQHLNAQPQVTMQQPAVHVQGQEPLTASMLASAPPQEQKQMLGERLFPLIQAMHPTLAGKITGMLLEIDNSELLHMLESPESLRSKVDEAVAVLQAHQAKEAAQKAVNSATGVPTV
Chain of Luciferin 4-monooxygenase (P08659 whole entry, the tested form may be a part): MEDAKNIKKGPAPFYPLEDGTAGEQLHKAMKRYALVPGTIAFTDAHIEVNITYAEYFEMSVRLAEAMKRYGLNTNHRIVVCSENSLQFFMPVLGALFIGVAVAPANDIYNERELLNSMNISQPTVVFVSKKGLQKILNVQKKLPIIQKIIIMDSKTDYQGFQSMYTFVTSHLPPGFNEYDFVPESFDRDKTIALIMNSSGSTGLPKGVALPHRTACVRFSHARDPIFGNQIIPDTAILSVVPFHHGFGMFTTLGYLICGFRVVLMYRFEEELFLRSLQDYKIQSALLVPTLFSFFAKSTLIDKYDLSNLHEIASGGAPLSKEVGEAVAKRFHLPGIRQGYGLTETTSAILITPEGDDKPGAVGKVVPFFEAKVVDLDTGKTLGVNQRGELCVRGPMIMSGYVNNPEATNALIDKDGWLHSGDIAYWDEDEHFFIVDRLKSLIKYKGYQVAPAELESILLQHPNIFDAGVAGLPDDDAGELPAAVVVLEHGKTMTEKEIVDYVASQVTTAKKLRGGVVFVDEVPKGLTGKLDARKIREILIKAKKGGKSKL
Chain of Large T antigen (P03070 whole entry): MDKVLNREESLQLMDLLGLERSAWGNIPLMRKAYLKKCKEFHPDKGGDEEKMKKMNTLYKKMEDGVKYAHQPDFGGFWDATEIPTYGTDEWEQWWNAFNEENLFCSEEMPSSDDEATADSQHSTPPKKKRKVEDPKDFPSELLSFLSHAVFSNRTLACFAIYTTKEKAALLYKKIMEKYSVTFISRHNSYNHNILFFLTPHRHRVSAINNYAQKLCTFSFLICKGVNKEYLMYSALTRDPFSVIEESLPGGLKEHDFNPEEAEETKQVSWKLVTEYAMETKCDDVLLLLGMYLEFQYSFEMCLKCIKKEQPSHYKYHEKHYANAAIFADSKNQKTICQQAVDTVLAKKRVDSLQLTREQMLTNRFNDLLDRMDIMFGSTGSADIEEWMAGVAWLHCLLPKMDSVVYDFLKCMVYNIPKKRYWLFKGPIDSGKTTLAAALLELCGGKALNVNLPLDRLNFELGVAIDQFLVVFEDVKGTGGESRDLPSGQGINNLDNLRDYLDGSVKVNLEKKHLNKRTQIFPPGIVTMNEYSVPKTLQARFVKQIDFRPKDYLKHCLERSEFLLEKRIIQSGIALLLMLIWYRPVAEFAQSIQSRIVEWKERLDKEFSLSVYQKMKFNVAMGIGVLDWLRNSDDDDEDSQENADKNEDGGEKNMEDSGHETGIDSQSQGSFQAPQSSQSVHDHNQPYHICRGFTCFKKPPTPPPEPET

For the molecule `CCc1ccc(C(N)=S)cc1`, the IC50 in assay [1] and in [2] was > 66 µM (inactive) each time.

As for `COCc1cc(O)nc(SCCS(=O)(=O)c2ccc(Cl)cc2Cl)n1`, the IC50 in assay [1] and in [2] was > 66 µM (inactive) each time. The EC50 in assay [3] is > 260 µM (inactive).

As for `O=S(=O)(NC(=S)NC1CCCCC1)c1cccs1`, the IC50 in assay [1] and in assay [2] was > 66 µM (inactive) each time.

As to `CCOC(=O)c1cccc(NC(=O)CSc2nnc(-c3ccoc3C)n2CCOC)c1`, the IC50 at Coagulation factor XII was > 50 µM (inactive).

Take `CCOC(=O)c1[nH]c2ccccc2c1N=C(S)Nc1cccc(C)c1C`: the IC50 in [1] was > 66 µM (inactive); in [4], 95.4 µM (active); in [2], > 66 µM (inactive); at Large T antigen it was 35.1 µM (active).

Consider `CCC(CO)n1c(SCc2cc(=O)oc3cc(C)ccc23)nc2ccccc2c1=O` (stereo unspecified), for which the IC50 on Coagulation factor XII is > 50 µM (inactive).

Regarding `Cc1ccc(OCC(=O)Nc2nnn(C)n2)c(C)c1`, the IC50 at Coagulation factor XII is > 50 µM (inactive).

In the case of `COc1ccccc1C(N)=S`, the IC50 in assay [1] and in assay [2] was > 66 µM (inactive) throughout.

`Cc1ccc2oc(NC(=O)N3CCOCC3)cc(=O)c2c1`: the IC50 at Coagulation factor XII was > 50 µM (inactive).

As to `Cc1ccc(C2(C)NC(=O)N(CC(=O)Nc3ccccc3N3CCCC3)C2=O)cc1` (stereo unspecified), the EC50 in “cells [5]” and in the assay “cells [6]” was > 350 µM (not active) throughout.

For the molecule `COc1cccc(-c2nnc3n2N=C(c2cc(OC)ccc2OC)CS3)c1`, in assay [7], the IC50 is > 20 µM (inactive).

Take `CC1CN(S(=O)(=O)c2cccc(C(=O)N(CCc3ccccc3)Cc3ccccc3)c2)CC(C)O1` (stereo unspecified): the EC50 in “cells [5]” and in “cells [6]” was > 350 µM (not active) in each case.

As for `CC(C)CCC(C(=O)O)C(C)CC(=O)NNC(=O)c1ccco1` (stereo unspecified), the AC50 in [8] was 19.9 µM (active); in [9], > 70 µM (inactive).

Turning to `CC(=O)Nc1ccc(SCC(=O)NC(=O)c2ccccc2Br)cc1`, the IC50 in assay [1] and in assay [2] was > 66 µM (inactive) throughout.

Turning to `O=C(CCCCCN1C(=O)c2cccc3cccc(c23)C1=O)NC1CCS(=O)(=O)C1` (stereo unspecified), in assay [7], the IC50 was > 20 µM (inactive).

On to `Oc1nc(CN2CC=C(c3ccccc3)CC2)nc2cc(C(F)(F)F)ccc12`, for which the EC50 in assay [10] and in assay [11] was > 112 µM (not active) each time. Besides, in the assay on HEK293, the AC50 is > 350 µM (inactive).

Regarding `O=C(CSc1nc2ccsc2c(=O)n1Cc1ccc(C(=O)O)cc1)NCc1ccco1`, the IC50 in assay [7] was > 20 µM (inactive).

Turning to `CC12CC3(C)CC(C)(C1)CC(C(=O)NCCc1ccc(S(N)(=O)=O)cc1)(C2)C3`, the EC50 in “cells [5]” and in the assay “cells [6]” was > 350 µM (not active) throughout.

With `C#CCOCCOCCOCCNc1nc(N2CCN(C(=O)[C@H](CCCN=C(N)N)n3cc(C(N)[C@@H](C)CC)nn3)CC2)nc(N2CCN(C(=O)[C@H](CC(N)=O)n3cc([C@@H](N)CC(N)=O)nn3)CC2)n1` (stereo partly specified), in assay [7], the IC50 was > 20 µM (inactive).

In the case of `Nc1ncnc2c1ncn2CCN1CCOCC1`, the EC50 in “cells [5]” and in “cells [6]” was > 350 µM (not active) in each case.

Turning to `CC(C)N(Cc1ccccc1)C(S)=NC1CCCCC1`, the IC50 on Coagulation factor XII was > 50 µM (inactive).

As for `Cc1sc(NC(=O)CSc2nnnn2C2CCCC2)c(C#N)c1C`, the IC50 at Coagulation factor XII is > 50 µM (inactive).

Turning to `O=C1CC(Nc2ccccc2)C(=O)N1Cc1ccccc1` (stereo unspecified), the EC50 in the assay “cells [5]” and in “cells [6]” was > 350 µM (not active) each time.

On to `COCCNC(=O)C(=O)NCC1OCCN1S(=O)(=O)c1cc(F)ccc1F` (stereo unspecified), for which the EC50 in the assay “cells [5]” and in the assay “cells [6]” was > 350 µM (not active) in each case.

On to `C=CCn1c(N)c(C(=O)OCC)sc1=S`, for which the IC50 in assay [1] and in assay [2] was > 66 µM (inactive) each time.

For the molecule `Cc1cccc(C)c1NC(=O)CCCSc1nnc(-c2ccc(Cl)cc2)n1-c1ccccc1`, the AC50 in assay [12] was 48.8 µM (active); in assay [13] it was 10.5 µM (active).

Regarding `COc1cc(-c2cc(=O)c3ccc(O)cc3o2)cc(OC)c1OC`, the IC50 in assay [1] is 33.7 µM (inactive); in [2], > 66 µM (inactive).

`COC(C[C@H](O)C[C@@H](O)[C@H](C)OCc1ccccc1)OC`: the IC50 at Coagulation factor XII is > 50 µM (inactive).

Take `c1ccc(C[C@H]2CNCCN2CCC23CC4CC(CC(C4)C2)C3)cc1`: the IC50 in [7] is > 20 µM (inactive).

As to `O=C(CCC(=O)N/N=C/c1ccc(Br)s1)NCc1ccccc1`, the IC50 at Coagulation factor XII was > 50 µM (inactive).

For orientation: EC50 means the concentration giving half of the maximal effect. Broadly, the AC50 is the concentration giving half of the maximal activity seen.
